Test results: ChEMBL document CHEMBL1781916, “p38alpha mitogen-activated protein kinase inhibitors: optimization of a series of biphenylamides to give a molecule suitable for clinical progression” (J Med Chem, 2009)

Assays:
[1] = AUC in Lewis rat 0.25 mg/kg, po; settings: Lewis, plasma
[2] = (§1) Oral bioavailability in Lewis rat at 1 mg/kg; assay type: ADME, organism-based; settings: Lewis, in vivo
[3] = (§2) Clearance in Lewis rat at 1 mg/kg, iv; assay type: ADME, organism-based; parameters: dose 1 mg/kg, route intravenous; settings: Lewis, in vivo
[4] = Half life in Lewis rat at 1 mg/kg, iv; assay type: ADME, organism-based; parameters: dose 1 mg/kg, route intravenous; settings: in vivo
[5] = Clearance in Lewis rat at 0.25 mg/kg, iv; assay type: ADME, organism-based; parameters: dose 0.25 mg/kg, route intravenous; settings: in vivo
[6] = Oral bioavailability in Lewis rat at 0.25 mg/kg, po; assay type: ADME, organism-based; settings: in vivo
[7] = Half life in Lewis rat at 0.25 mg/kg, iv and 0.25 mg/kg, po; assay type: ADME, organism-based; settings: in vivo
[8] = Oral bioavailability in cynomolgus monkey at 1.4 mg/kg; assay type: ADME, organism-based, Macaca fascicularis; settings: in vivo
[9] = tested on: Rattus norvegicus; test: Volume of distribution at steady state in Lewis rat at 1 mg/kg, iv; assay type: ADME, organism-based; parameters: dose 1 mg/kg, route intravenous; settings: in vivo
[10] = tested on: Rattus norvegicus; test: as §1; assay type: ADME, organism-based; settings: in vivo
[11] = Oral bioavailability in dog; assay type: ADME, organism-based, Canis lupus familiaris; settings: in vivo
[12] = Ratio of drug level in brain to plasma in Lewis rat at 1 mg/kg, iv and 1 mg/kg, po; assay type: ADME, organism-based; settings: read-out: BPR
[13] = tested on: Rattus norvegicus; test: AUC in Lewis rat 0.25 mg/kg, po; settings: in vivo
[14] = Oral bioavailability in mouse; assay type: ADME, organism-based; settings: in vivo
[15] = tested on: Rattus norvegicus; test: as §2; assay type: ADME, organism-based; parameters: dose 1 mg/kg, route intravenous; settings: in vivo

Q: For `Cc1c(F)cc(C(=O)NC2CC2)cc1-c1ccc(C(=O)N[C@H](C)C(C)C)cn1`, which AUC [1] is on record?
A: 50 ng·h/mL

Q: For `Cc1c(F)cc(C(=O)NC2CC2)cc1-c1ccc(C(=O)N[C@H](C)C(C)(C)C)cn1`, which AUC [1] is on record?
A: 23 ng·h/mL

Q: For `Cc1c(F)cc(C(=O)NC2CC2)cc1-c1ccc(C(=O)N[C@@H](C)C(C)(C)C)cn1`, which AUC [1] is on record?
A: 6 ng·h/mL

Q: With `Cc1c(F)cc(C(=O)NC2CC2)cc1-c1ccc(C(=O)NCC2CC2)cn1` as the compound, how does the bioavailability [2] read?
A: > 95%

Q: What about the clearance [3] of the same compound?
A: 2.5 mL/min/kg

Q: And the AUC [1]?
A: 810 ng·h/mL

Q: And the half-life [4]?
A: 114 min

Q: Which clearance [5] does the source give for `Cc1c(F)cc(C(=O)NC2CC2)cc1-c1ccc(C(=O)NCC(C)C)cn1` here?
A: 6.4 mL/min/kg

Q: And the bioavailability [6]?
A: 56%

Q: And the AUC [1]?
A: 360 ng·h/mL

Q: And the half-life [7]?
A: 66 min

Q: What does the source list for `Cc1c(F)cc(C(=O)NC2CC2)cc1-c1ccc(C(=O)NCC(C)(C)C)cn1` [LOSMAPIMOD]?
A: bioavailability [8]: 35%; Vdss [9]: 0.9 L/kg; F [10]: 71%; bioavailability [11]: 55%; Kp [12]: 0.1; bioavailability [6]: 51%; AUC [13]: 220 ng·h/mL; half-life [4]: 72 min; bioavailability [14]: 59%; half-life [7]: 66 min

Q: Which bioavailability [2] does the source give for `Cc1ccc(C(=O)NC2CC2)cc1-c1ccc(C(=O)NCC2CC2)cn1` here?
A: 99%

Q: And the clearance [15]?
A: 1.5 mL/min/kg

Q: What about the half-life [4] of the same compound?
A: 180 min

Q: Which AUC [1] does the source give for `Cc1c(F)cc(C(=O)NC2CC2)cc1-c1ccc(C(=O)N[C@@H](C)C(C)C)cn1` here?
A: 8 ng·h/mL
